# In paper PMC10094510, “Novel Cannabinoid Receptor 2 (CB2) Low Lipophilicity Agonists Produce Distinct cAMP and Arrestin Signalling Kinetics without Bias” (International Journal of Molecular Sciences, 2023):
# Where two headings read alike, the source gives them in different places.
# What was measured:
# CB2 [1] = tested on: CB2; design: method as in PMID 31024316; details: cited from earlier work
# human CB2 [2] = target: T1, human CB2 (Homo sapiens, UniProt P34972, Q63R); assay: Real-time BRET β-arrestin-2 plasma membrane translocation, HEK-293S cells transfected with human CB2; assay type: cell-based; details: for β-arrestin-2 translocation ΔEmax (% increase above V): normalised to vehicle 100%
# T1 construct: HA (N); 3TCS (N); expressed in transfected cells; host or cells: HEK-293S cells, transient transfection (PEI max)
# Description: (§1) HEK-293S cells (HEK-S; generously provided by Professor David Poyner, Aston Research Centre, RRID:CVCL_A784 [48]) were maintained in T75 flasks (Corning-Costar) with Dulbecco’s Modified Eagle’s Medium high glucose with phenol red, L-glutamine and sodium pyruvate (DMEM; Cytiva SH30243), and 8% foetal bovine serum (FBS; NZ-origin, Moregate Biotech) at 37 °C in a humidified atmosphere containing 5% CO2.
# (§2) Poly-D-Lysine (PDL) (Sigma-Aldrich) at 0.05 mg/mL in PBS was incubated in wells of 96-well Solid White Flat Bottom Polystyrene TC-treated Microplate (Corning-Costar) at 37 °C for 1 h, then washed with PBS prior to seeding and transfection. Cells were seeded at 45,000 cells/well in DMEM supplemented with 12% FBS.
# (§3) Plasmids encoding human CB2 (HA-3TCS-hCB2 63R pcDNA5/FRT; 28.5 ng per well) or no receptor (pcDNA5/FRT/CAT; 23.5 ng per well; Thermo Fisher Scientific, Waltham, MA, USA), and either His-CAMYEL (in pcDNA3L; 24 ng per well; ATCC MBA-277; previously described in [49]), or a mix of Rluc8-hβ-arrestin2-Sp1 (in pcDNA3; 0.5 ng per well; previously described in [19]) and Mem-linker-Citrine-SH3 (in pcDNA3; 20 ng per well; previously described in [19, 50]) were diluted in DMEM. Diluted DNA was then co-incubated with polyethyleneimine max (PEI max; Polysciences, Warrington, PA, USA) (Total DNA:PEI ratio of 1:7.5 or 1:6.7 for cAMP or β-arrestin-2 experiments, respectively) in DMEM for 1 h at room temperature (~19–21 °C). These transfection mixes were then added to plated cells, resulting in a final concentration of 8% FBS. Plates were incubated for ~48 h before assaying.
# (§4) The protocol for measuring levels of cellular cAMP via real-time BRET biosensor (CAMYEL) is adapted from previous publications. In all cAMP experiments, forskolin (Tocris Bioscience, Bristol, UK) was used to stimulate the activation of adenylyl cyclase to raise intracellular cAMP levels. Vehicle (DMSO) was maintained at an equivalent concentration across all conditions. Assays were carried out in technical duplicate. Then, ~48 h post-transfection, plating media was aspirated, and wells were washed with H+B, consisting of HBSS (Life Technologies) and 1 mg/mL BSA (ICPbio). H+B was then added to the wells to initiate a 30 min serum starve at 37 °C. Post-serum starve, coelenterazine h (final concentration 5 μM, NanoLight Technologies, Norman, OK, USA, #301) was added to the wells, and a 5 min pre-reading was conducted using the LUMIstar® Omega luminometer (Rluc and YFP emissions detected at 460 nm and 535 nm, respectively; BMG Labtech, Ortenberg, Germany). Next, forskolin (final concentration 5 μM) was added to all wells (except vehicle-only wells which received DMSO), and plate reading resumed for 5 min. Lastly, CB2 compounds of interest with forskolin, vehicle with forskolin, or vehicle without forskolin, were added to their respective wells, and a final 20 min read was conducted. All compounds and reagents were diluted in H+B prior to addition to the plate. For β-arrestin-2 recruitment assays, an equivalent procedure was followed except no forskolin was included in the assay stimulations.
# (§5) BRET ratios were calculated by dividing YFP emissions by Rluc emissions, then for the cAMP assay, normalised to the mean of baseline ratio reads (where only coelenterazine h was present) to eliminate any variability present prior to drug addiction. An increase in BRET ratio indicated a decrease in cAMP levels or increase in β-arrestin-2 recruitment. Lowess smoothing (GraphPad Prism) was applied to individual technical replicates within an assay. Concentration response curves for the mean of technical replicates (CRC; “log(agonist) vs. response (three parameters)” nonlinear regression curve model, Hill slope constrained to 1) were drawn for the mean ratios over 20 min stimulation or individual time-points.
# human CB1 = target: T2, human CB1 (Homo sapiens, UniProt P21554); assay: Competition radioligand binding assay ([3H]-CP55,940), hCB1 membranes
# T2 construct: pplss (N); 3HA (N); expressed in transfected cells
# Description: Preparation of hCB1- and hCB2-membranes from a HEK pplss-3HA-hCB1 cell line and HEK Flp-in HA-3TCS-hCB2 63R cell line, respectively, followed the protocol described previously. […] The concentration of DMSO was kept equivalent across all test conditions. All dilutions were dispensed into a 96-well, polypropylene V-bottom plate (Gene Era Biotech, Hangzhou, China). […] All conditions were carried out in technical duplicate. The plate was then sealed, tap-mixed, then incubated at 30 °C for 1 h. A total of 50 µL of 0.1% PEI (Sigma-Aldrich, St. Louis, MI, USA) in MQ water was added to each well of a 96-well GF/C harvest plate (Perkin Elmer) 1 h prior to the harvest. When the incubation finished, vacuum (~5 mmHg) was applied to the harvest plate and wells were washed (50 mM HEPES pH 7.4, 500 mM NaCl, 1 mg/mL BSA, MQ water, ice cold). Subsequently, the contents of the V-bottom plate were transferred to corresponding wells in the harvest plate, wash buffer was used to wash the remaining contents of the V-bottom wells before transferring this to the harvest plate, then the harvest plate was washed an additional three times. The plate was dried for ~24 h at 24 °C. To prepare for reading, the bottom of the plate was sealed, each well received 50 µL of Irgasafe Plus scintillation fluid (Perkin Elmer), followed by sealing the top of the plate. Plates were read in a Wallac MicroBeta® TriLux Liquid Scintillation Counter (Perkin Elmer) with a read time of 2 min/well.
# (§6) GraphPad Prism (v8.0.2; GraphPad Software, San Diego, CA, USA) was used to fit nonlinear regression curves (One site—Fit Ki) to the corrected counts per minutes (CCPM) of each displacer to determine their pKi (negative log Ki). […] Mean and SEM of pKi values were calculated from independent experiments. […] CB2 selectivity was calculated as […].
# human CB2 [3] = target: T1, human CB2; assay: Real-time BRET CAMYEL cAMP biosensor, forskolin-stimulated HEK-293S cells transfected with human CB2; assay type: cell-based; details: for 2.5 min EC75 concentration (log[compound] M): cAMP assay, calculated from mean EC50 at 2.5 min, Figure S1; for time of peak cAMP response (maximal efficacy): during 20 min stimulation; for cAMP ΔEmax (absolute magnitude percentage decrease from 100%): normalised to V 0% and F 100%
# Description: as §1, §2, §3, §4, §5
# human CB2 [4] = target: T1, human CB2; assay: Competition radioligand binding assay ([3H]-CP55,940), hCB2 membranes; details: for CB2/CB1 Selectivity: CB2 selectivity relative to CB1, from Ki (or Kd); for displacement of [3H]-CP55,940 from CB2: full displacement = ≥ 75% relative to 1 µM CP55,940
# Description: The concentration of DMSO was kept equivalent across all test conditions. All dilutions were dispensed into a 96-well, polypropylene V-bottom plate (Gene Era Biotech, Hangzhou, China). […] All conditions were carried out in technical duplicate. The plate was then sealed, tap-mixed, then incubated at 30 °C for 1 h. A total of 50 µL of 0.1% PEI (Sigma-Aldrich, St. Louis, MI, USA) in MQ water was added to each well of a 96-well GF/C harvest plate (Perkin Elmer) 1 h prior to the harvest. When the incubation finished, vacuum (~5 mmHg) was applied to the harvest plate and wells were washed (50 mM HEPES pH 7.4, 500 mM NaCl, 1 mg/mL BSA, MQ water, ice cold). Subsequently, the contents of the V-bottom plate were transferred to corresponding wells in the harvest plate, wash buffer was used to wash the remaining contents of the V-bottom wells before transferring this to the harvest plate, then the harvest plate was washed an additional three times. The plate was dried for ~24 h at 24 °C. To prepare for reading, the bottom of the plate was sealed, each well received 50 µL of Irgasafe Plus scintillation fluid (Perkin Elmer), followed by sealing the top of the plate. Plates were read in a Wallac MicroBeta® TriLux Liquid Scintillation Counter (Perkin Elmer) with a read time of 2 min/well.
# as §6
# [5] = design: method as in PMID 22444677, PMID 25721168; details: cited from earlier work
# rodents = tested on: rodents; design: method as in PMID 22444677, PMID 25721168; details: cited from earlier work
# atopic dermatitis = tested on: atopic dermatitis; design: method as in PMID 22444677, PMID 25721168; details: informally reported; cited from earlier work
# CB2 [6] = tested on: CB2; design: method as in PMID 22444677; details: error not shown; cited from earlier work
# CB2 [7] = target: CB2; design: method as in PMID 22444677; details: error not shown; cited from earlier work; remark: listed apart in the source
# [8] = mean over 20 min stimulation, 5 μM forskolin
# T2 sequence (P21554 whole entry): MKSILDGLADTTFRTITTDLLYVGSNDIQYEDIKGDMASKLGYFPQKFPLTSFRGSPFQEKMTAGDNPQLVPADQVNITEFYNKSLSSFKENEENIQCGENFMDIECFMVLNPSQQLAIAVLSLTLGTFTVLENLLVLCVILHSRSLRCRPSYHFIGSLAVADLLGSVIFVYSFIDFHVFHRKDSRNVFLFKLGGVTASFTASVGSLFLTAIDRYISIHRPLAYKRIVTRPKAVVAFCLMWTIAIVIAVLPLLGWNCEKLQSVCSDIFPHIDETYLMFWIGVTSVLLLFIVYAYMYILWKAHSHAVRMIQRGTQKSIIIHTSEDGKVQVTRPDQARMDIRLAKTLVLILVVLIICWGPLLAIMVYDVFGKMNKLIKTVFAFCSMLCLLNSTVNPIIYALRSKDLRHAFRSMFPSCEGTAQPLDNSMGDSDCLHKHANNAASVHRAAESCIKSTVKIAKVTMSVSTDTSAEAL
# T1 sequence (P34972 whole entry Q63R): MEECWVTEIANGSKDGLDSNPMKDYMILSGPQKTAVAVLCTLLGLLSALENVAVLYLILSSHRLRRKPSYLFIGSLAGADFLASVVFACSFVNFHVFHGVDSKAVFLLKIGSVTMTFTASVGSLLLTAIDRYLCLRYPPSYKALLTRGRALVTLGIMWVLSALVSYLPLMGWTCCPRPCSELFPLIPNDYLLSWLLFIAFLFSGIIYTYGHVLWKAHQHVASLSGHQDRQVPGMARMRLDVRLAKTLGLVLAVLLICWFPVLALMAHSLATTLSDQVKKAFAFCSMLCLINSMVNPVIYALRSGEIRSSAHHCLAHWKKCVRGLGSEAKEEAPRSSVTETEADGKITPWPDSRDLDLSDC
Structure (SMILES),EC50 (human CB2 [2]) [µM],β-arrestin-2 translocation ΔEmax (% increase above V) (human CB2 [2]; mean over 20 min stimulation),Ki (human CB1) [µM],EC50 (human CB2 [3]) [µM],2.5 min EC75 concentration (log[compound] M) (human CB2 [3]) [log M],time of peak cAMP response (maximal efficacy) (human CB2 [3]; 5 μM forskolin),"decrease in cAMP pEC50 in comparison with CP55,940 (human CB2 [3]; mean over 20 min stimulation)",cAMP ΔEmax (absolute magnitude percentage decrease from 100%) (human CB2 [3]; [8]),Ki (human CB2 [4]) [µM],CB2/CB1 Selectivity (human CB2 [4]),"displacement of [3H]-CP55,940 from CB2 (human CB2 [4])",also measured
"Cc1c(C(=O)c2cccc3ccccc23)c2cccc3c2n1[C@H](CN1CCOCC1)CO3 [WIN55,212-2]",,,,,,,,,,,,"agonist type for β-arrestin-2 recruitment to CB2 in comparison with CP55,940 (CB2 [1]): weak partial agonist"
O=C(N[C@H]1CC[C@@H](O)CC1)c1cc2cccnc2n(CCN2CCOCC2)c1=O [UOMM18],0.126,7.3 ± 0.6%,> 100,0.0631,-7.1,2.5 min,~ 0.8 log units,28.0 ± 2.4%,0.724,>126,,"agonist type for β-arrestin-2 translocation (human CB2 [2]; relative to CP55,940): partial agonist; displacement of [3H]-CP55,940 at CB1 (human CB1; highest applied concentration 31.6 µM): did not detectably displace; CB2 affinity lower than pKd of CP55,940 (human CB2 [4]; p < 0.0001): ~ 2.5 log units"
"CCc1c(C)cc(C(=O)NC2(C(=O)O)CCCCC2)c(=O)n1Cc1ccc(F)cc1 [UOSS77, reference compound]",,11.1 ± 0.7%,,,-7.6,2.5 min,,33.8 ± 5.5%,,~80,fully displaced,"EC50 (human CB2 [2]; mean over 20 min stimulation, mean ± SEM, read-out: β-arrestin-2 translocation pEC50 (converted)): 0.126 µM; oral bioavailability [5]: orally bioavailable; anti-pruritic activity in rodents (rodents): shown promise as an anti-pruritic agent; Ki (human CB1; 0.75 nM [3H]-CP55,940, estimates, incomplete displacement at maximum concentration, read-out: CB1 pKi (±SEM) (converted)): ~15.8 µM; efficacy in Phase 2 clinical trial for atopic dermatitis (atopic dermatitis): ineffective; EC50 (human CB2 [3]; mean over 20 min stimulation, 5 μM forskolin, mean ± SEM, read-out: cAMP pEC50 (converted)): 0.0126 µM; agonism pEC50 (cAMP) (CB2 [6]): 7.6; Ki (human CB2 [4]; 0.75 nM [3H]-CP55,940, mean (SEM), read-out: CB2 pKi (±SEM) (converted)): 0.186 µM; CB2 pKi (CB2 [7]): 7.4"
CCc1c(C)cc(C(=O)NC2(C(=O)NCCOCCOCCO)CCCCC2)c(=O)n1Cc1ccc(F)cc1 [UOSS75],0.1,8.5 ± 0.7%,~15.1,0.01,-7.6,2.5 min,,31.4 ± 3.9%,0.148,~100,fully displaced,
"CCCCCCC(C)(C)c1ccc([C@@H]2C[C@H](O)CC[C@H]2CCCO)c(O)c1 [CP55,940, reference compound]",,17.6% ± 0.8%,,,-7.3,≤ 2.5 min,,35.1% ± 3.5%,,,,"time to plateau of β-arrestin-2 efficacy (human CB2 [2]; 20 min stimulation): approximately 5 min; overall increase of β-arrestin-2 response potency during the stimulation (human CB2 [2]; 20 min stimulation, vs 1.5 min): ~ 0.7 log units; increase of cAMP response potency during the acute 5 min period (human CB2 [3]; not significant vs 2.5 min): ~ 0.5 log units"
CCc1c(C)cc(C(=O)NC2(C(=O)NCCOCCOCCOCCO)CCCCC2)c(=O)n1Cc1ccc(F)cc1 [UOSS76],0.631,7.9 ± 1.2%,~29.5,0.1,-6.9,around 4.5 min,~ 1.0 log units,26.1 ± 3.6%,0.813,~40,fully displaced,"smaller β-arrestin-2 pEC50 than CP55,940 (human CB2 [2]; mean over 20 min stimulation): ~ 1.0 log units; weaker β-arrestin-2 potency than UOSS77 (human CB2 [2]; mean over 20 min stimulation): ~ 0.7 log units; decrease of cAMP response potency during the early phase of stimulation (human CB2 [3]; not significant vs 4.5 min): ~ 0.7 log units; reduction of CB2 pKi vs. UOSS77 (human CB2 [4]; p = 0.015): 0.6 log units"
